Measurements: US7078059B2, “Treatment of bone diseases” (Shire Holdings AG, priority 2000, dated 2006)
Several values for one entry are separate records, joined by “and”; a condition that tells them apart may be missing. Equal entries are not always repeated. Entries after “also recorded” stand apart in the source; their conditions may differ. Where two headings read alike, the source gives them in different places.

Key:
[1] = system: mouse bone marrow derived osteoprogenitor cells; experiment: In vitro osteoblast differentiation assay (cellular alkaline phosphatase); format: cell-based; settings: LA number = ng/ml lanthanum
Outline: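 Mouse bone marrow osteoprogenitors cultured, then test substances added at start of estrogen-free secondary culture and at each medium change. ALP measured colorimetrically (p-nitrophenylphosphate, pH 9.7, OD 405 nm) and normalised to protein. Reported as specific ALP relative to baseline-group mean.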

mature osteoblasts = experiment: In vitro bone formation assay (calcium deposition into bone nodules); format: cell-based, mouse; settings: LA number = ng/ml lanthanum
Outline: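 Calcium deposited into bone nodules during culture was released by HCl extraction and complexed with o-cresol-phthalein-complexon, read at 570 nm. Absolute calcium (mmol/L) from a calibrated standard. Lanthanum carbonate tested.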

[2] = system: osteoclast precursors in mouse bone marrow; settings: LA number = ng/ml lanthanum; for Relative TRAP 5b activities, Mean ± SD: relative to mean of baseline group, with 1,25-dihydroxyvitamin D3, 6 days
Excerpt: A method known as mouse bone marrow culture system is the one most widely used to study osteoclast differentiation. Originally, this method was developed by Takahashi et al. (1988a). Osteoclast precursors in mouse bone marrow can be induced to form multinucleated osteoclast-like cells (MNC) in the presence of either an active metabolite of vitamin D3 (1,25(OH)2D3) or parathyroid hormone (PTH). […] They form pits on bone or dentine slices (Takahashi et al. 1988a, Hattersley and Chambers 1989, Shinar et al. 1990); they express high levels of tartrate-resistant acid phosphatase (TRAP) and calcitonin receptors (Takahashi et al. 1988b, Shinar et al. 1990); and they respond to calcitonin (Takahashi et al. 1988a) and prostaglandin E2 (Collins and Chambers 1992). Thus, the method is an ideal one with which to study both stimulators and inhibitors of osteoclast differentiation.
In the original culture system, the osteoclast formation was determined after an 8-day culture. In bone marrow, both non-adherent osteoclast precursors and stromal cells are present, the latter of which are needed to support osteoclast formation. The number of osteoclasts formed is generally determined by counting the number of TRAP-positive MNC containing at least three nuclei (Takahashi et al. 1988a).
We have modified the original assay so that we culture 1×10^6 mouse marrow cells/ml for 6 days. […] Instead of counting of the number of differentiated osteoclasts formed, we measured the amount of TRAP liberated from osteoclasts into the culture medium using a fast, simple TRAP immunoassay (Halleen et al. 1999) presentation in the Annual Meeting of the American Society for Bone and Mineral Research, Sep. 30-Oct. 4, 1999, in St. Louis, Mo., USA.
8-10-week old mice were killed with CO2. Tibia and femora were dissected free from adhering soft tissues. The bone ends were cut off with a scalpel and the marrow was flushed with α-Minimal Essential Medium (α-MEM, Gibco BRL, Paisley, UK) supplemented with 100 IU/ml penicillin and 100 μg/ml streptomycin. A 10 ml syringe with a 27 gauge needle was used for flushing. Cells were centrifuged at 600×G for 10 minutes and the cell pellet was resuspended in -MEM containing 10% fetal calf serum. Cells were allowed to attach to plastic for 2 h at 37° C. in a 5% CO2 incubator to allow removal of monocytes and macrophages. Nonadherent cells were duly removed, and the […] bone marrow cells were cultured in 24-well plates (1×10^6 cells/well=1 ml) for 6 days. Half of the media were changed at day 3 and the treatments replaced. At the end of the culture, the plates were fixed with 2% paraformaldehyde in PBS for 20 minutes. Osteoclast formation was determined by measuring TRAP activity from the culture media using the novel TRAP immunoassay (vide infra), where we use a polyclonal TRAP antiserum prepared in rabbits against purified human bone TRAP. The TRAP antibody was bound to anti-rabbit IgG coated microtiter wells (Gibco BRL, Paisley, UK), and medium TRAP was then bound to the antibody. The activity of bound TRAP was measured in sodium acetate buffer using pNPP as substrate.
In this study, the effect of the lanthanum (III) ion on osteoclast differentiation in the presence of 1,25-dihydroxyvitamin D3 was tested. The following sample groups were included: • Baseline (including vehicle) • Control (Baseline without 1,25-dihydroxyvitamin D3) • Baseline+100 ng/ml lanthanum • Baseline+500 ng/ml lanthanum • Baseline+1000 ng/ml lanthanum • Baseline+5000 ng/ml lanthanum • Baseline+15000 ng/ml lanthanum
Six replicates were included in each group, and the test was performed twice. Baseline without 1,25-dihydroxyvitamin D3 was used as a control to show the test system allows inhibition of osteoclast differentiation to be detected.

[3] = first osteoblast differentiation assay, relative to mean of baseline group, 8 days, Control = Baseline+10^−10 M 17-estradiol
[4] = preliminary osteoblast differentiation assay, relative to mean of baseline group, 8 days, Control = Baseline+10^−10 M 17-estradiol
[5] = second osteoblast differentiation assay, relative to mean of baseline group, 8 days, Control = Baseline+10^−10 M 17-estradiol
[6] = first bone formation assay, calcium released from bone nodules after HCl extraction, Control = Baseline+10^−10M 17β-estradiol
[7] = preliminary bone formation assay, calcium released from bone nodules after HCl extraction, Control = Baseline+10^−10M 17β-estradiol
[8] = second bone formation assay, calcium released from bone nodules after HCl extraction, Control = Baseline+10^−10M 17β-estradiol

Compound: O.O.O.O.O=C([O-])[O-].O=C([O-])[O-].O=C([O-])[O-].[La+3].[La+3] [LA 1000, lanthanum carbonate tetrahydrate]
- Effect on osteoblast differentiation, in words ([1]; lanthanum (III) ion = 100-15000 ng/ml, 17-estradiol 10^−10 M): No significant response; also recorded: do not decrease the formulation of osteoblasts
- Relative specific activities of intracellular alkaline phosphatase, Mean ± SD [1, 3]: 0.94 ± 0.14
- Relative specific activities of intracellular alkaline phosphatase, replicates 1-8 [1, 3]: 1.01 and 0.78 and 0.81
- Relative specific activities of intracellular alkaline phosphatase, Mean ± SD [1, 4]: 0.94 ± 0.19
- Relative specific activities of intracellular alkaline phosphatase, replicates 1-4 [1, 4]: 0.69 and 1.13 and 0.92 and 1.01
- Relative specific activities or intracellular alkaline phosphatase, Mean ± SD [1, 5]: 0.88 ± 0.21
- Relative specific activities or intracellular alkaline phosphatase, replicates 1-6 [1, 5]: 0.73 and 0.71 and 1.19 and 0.81 and 0.72 and 1.09
- Combined results on osteoblast differentiation (relative specific ALP activity), Mean ± SD ([1]; tables 8-10 combined, number 18, Control = Baseline+10^−10 M 17-estradiol): 0.92 ± 0.17
- Effect on bone formation activity of mature osteoblasts, in words (mature osteoblasts; lanthanum (III) / lanthanum (III) ion = all concentrations tested, 100 to 15,000 ng/ml, 17-estradiol 10^−10M): stimulate bone formation
- Calcium deposition, Mean ± SD (mature osteoblasts; [6]): 1.29 ± 0.28 mmol/L
- Calcium deposition, replicates 1-6 (mature osteoblasts; [6]): 0.95 mmol/L and 1.66 mmol/L and 1.47 mmol/L and 1.41 mmol/L and 1.00 mmol/L and 1.25 mmol/L
- Calcium deposition, Mean ± SD (mature osteoblasts; [7]): 0.07 ± 0.05 mmol/L
- Calcium deposition, replicates 1-4 (mature osteoblasts; [7]): 0.10 mmol/L and 0 mmol/L and 0.11 mmol/L and 0.05 mmol/L
- Calcium deposition, Mean ± SD (mature osteoblasts; [8]): 1.14 ± 0.55(* mmol/L
- Calcium deposition, replicates 1-8 (mature osteoblasts; [8]): 1.76 mmol/L and 0.02 mmol/L and 1.52 mmol/L
- Combined results on bone formation activity of mature osteoblasts (calcium released), Mean ± SD (mature osteoblasts; tables 13 and 14 combined, number 14, Control = Baseline+10^−10M 17β-estradiol): 1.20 ± 0.45 mmol/L
- Effect on osteoclast differentiation, in words ([2]; vs baseline with 1,25-dihydroxyvitamin D3): decreases the formation of osteoclasts
- Relative TRAP 5b activities, Mean ± SD ([2]; first osteoclast differentiation assay): 0.60 ± 0.25
- Relative TRAP 5b activities, Mean ± SD ([2]; second osteoclast differentiation assay): 0.69 ± 0.21
- Combined results on osteoclast differentiation (relative TRAP 5b activity), Mean ± SD ([2]; tables 4-6 combined, number 18 (LA 100) or 12): 0.65 ± 0.23 (**)
